Results on one molecule are retold here after PMC7701510, “Identification of HN252 as a potent inhibitor of protein phosphatase PPM1B” (Journal of Cellular and Molecular Medicine, 2020).

Common to all, as to format: biochemical
One assay addresses T1, PPM1K (Homo sapiens, UniProt Q8N3J5).
T1 sequence (Q8N3J5 30-372): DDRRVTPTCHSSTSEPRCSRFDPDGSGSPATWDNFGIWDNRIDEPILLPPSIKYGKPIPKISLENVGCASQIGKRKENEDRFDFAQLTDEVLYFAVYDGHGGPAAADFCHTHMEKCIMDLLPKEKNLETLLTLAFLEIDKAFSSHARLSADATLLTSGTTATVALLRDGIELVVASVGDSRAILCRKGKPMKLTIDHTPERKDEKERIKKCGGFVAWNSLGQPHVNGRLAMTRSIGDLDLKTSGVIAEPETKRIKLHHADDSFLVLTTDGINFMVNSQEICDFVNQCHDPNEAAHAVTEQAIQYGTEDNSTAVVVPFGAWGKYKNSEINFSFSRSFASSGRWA
Description: pNPP hydrolysis phosphatase assay (selectivity panel). The note with it: pNPP as substrate.

The next assay concerns the target T2, STEP (Homo sapiens, UniProt P54829).
T2 sequence (P54829 1-565): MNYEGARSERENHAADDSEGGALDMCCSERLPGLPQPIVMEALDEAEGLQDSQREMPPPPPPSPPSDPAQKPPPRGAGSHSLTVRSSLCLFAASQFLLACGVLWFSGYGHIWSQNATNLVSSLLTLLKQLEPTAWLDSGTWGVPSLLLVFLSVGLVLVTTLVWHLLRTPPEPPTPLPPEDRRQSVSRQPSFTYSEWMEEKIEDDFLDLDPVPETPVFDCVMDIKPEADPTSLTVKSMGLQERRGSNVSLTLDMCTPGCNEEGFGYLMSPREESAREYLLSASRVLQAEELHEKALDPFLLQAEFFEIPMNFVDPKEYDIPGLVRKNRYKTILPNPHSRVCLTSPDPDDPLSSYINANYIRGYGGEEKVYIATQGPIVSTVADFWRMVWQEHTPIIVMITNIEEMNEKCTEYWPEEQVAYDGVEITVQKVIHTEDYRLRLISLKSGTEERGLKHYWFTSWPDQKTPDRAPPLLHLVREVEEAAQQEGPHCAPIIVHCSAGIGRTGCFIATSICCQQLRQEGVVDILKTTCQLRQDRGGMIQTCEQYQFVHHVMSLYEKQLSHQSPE
Described as above. The note with it: pNPP as substrate.

The next assay concerns the target YPH (Yersinia enterocolitica, UniProt P15273).
The target in a further assay is PRL. Briefly: pNPP hydrolysis phosphatase assay (selectivity panel). The note with it: pNPP as substrate.
In a further assay the target is T3, SSH1 (Homo sapiens, UniProt Q8WYL5).
T3 sequence (Q8WYL5 1-1049): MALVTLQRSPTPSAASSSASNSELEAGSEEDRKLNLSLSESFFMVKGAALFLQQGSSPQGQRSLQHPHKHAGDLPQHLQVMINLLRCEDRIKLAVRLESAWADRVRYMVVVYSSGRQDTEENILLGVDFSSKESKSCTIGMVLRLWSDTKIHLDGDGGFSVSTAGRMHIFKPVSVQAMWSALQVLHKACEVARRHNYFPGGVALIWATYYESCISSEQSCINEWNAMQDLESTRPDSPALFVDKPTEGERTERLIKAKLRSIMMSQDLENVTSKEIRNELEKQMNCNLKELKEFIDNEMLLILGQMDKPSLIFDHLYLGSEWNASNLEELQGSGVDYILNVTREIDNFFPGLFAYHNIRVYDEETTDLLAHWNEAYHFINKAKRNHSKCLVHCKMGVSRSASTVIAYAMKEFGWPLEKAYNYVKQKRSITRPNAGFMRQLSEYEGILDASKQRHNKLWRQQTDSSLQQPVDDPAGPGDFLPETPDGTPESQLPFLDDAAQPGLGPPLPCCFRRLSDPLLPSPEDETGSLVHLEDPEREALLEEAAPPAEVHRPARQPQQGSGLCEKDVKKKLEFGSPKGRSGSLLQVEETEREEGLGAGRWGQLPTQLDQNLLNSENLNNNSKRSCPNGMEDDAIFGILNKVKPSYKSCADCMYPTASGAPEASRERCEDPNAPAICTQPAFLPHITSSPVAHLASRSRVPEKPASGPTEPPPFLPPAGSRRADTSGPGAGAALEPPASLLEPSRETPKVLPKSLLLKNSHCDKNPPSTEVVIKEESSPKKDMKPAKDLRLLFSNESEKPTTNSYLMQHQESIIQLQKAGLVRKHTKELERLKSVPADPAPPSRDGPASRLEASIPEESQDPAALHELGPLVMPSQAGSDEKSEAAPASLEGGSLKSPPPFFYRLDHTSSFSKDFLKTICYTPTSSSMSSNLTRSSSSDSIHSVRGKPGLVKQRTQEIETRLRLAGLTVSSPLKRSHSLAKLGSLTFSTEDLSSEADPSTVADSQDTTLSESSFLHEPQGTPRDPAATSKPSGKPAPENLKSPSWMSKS
The assay is described as above. The note with it: pNPP as substrate. The method, then:
The kinetic assays of PPM1B were carried out at 37°C in 0.1 M acetic acid buffer (50 mM Tris, 40 mM Mn^2+, pH 7.0). The p‐nitrophenyl phosphate (pNPP, Sigma) was used as the substrate which could be conveniently measured at 405 nm. Reactions were started by addition of pNPP to a reaction mixture containing PPM1B (0.4 μM PPM1B, final concentration) and various concentrations of HN252 and stopped by addition of 0.5 M EDTA (pH 10.0) after an appropriate time. The Km value of PPM1B towards pNPP hydrolysis (3.6 mM for pNPP) was used to determine the IC50. The IC50 values, the inhibition constant Ki and inhibition pattern were evaluated as previously described. ^18 The kinetic assays of HN252 towards to other protein phosphatases were carried out as previously described. ^19

Chain of YPH (P15273 163-468 limits assumed): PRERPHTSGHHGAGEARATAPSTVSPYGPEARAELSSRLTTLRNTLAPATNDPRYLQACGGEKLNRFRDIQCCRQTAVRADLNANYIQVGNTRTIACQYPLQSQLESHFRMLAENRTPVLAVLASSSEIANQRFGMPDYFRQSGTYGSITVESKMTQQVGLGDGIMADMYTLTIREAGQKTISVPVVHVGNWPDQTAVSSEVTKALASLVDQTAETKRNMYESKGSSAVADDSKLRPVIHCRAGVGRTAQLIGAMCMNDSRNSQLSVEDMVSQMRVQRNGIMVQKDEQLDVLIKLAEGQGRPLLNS

In the case of `Nc1cc(-c2ccc(-c3ccc(O)c(O)c3)cc2)ccc1C(=O)O` [HN252], the IC50 was 27.4 ± 3.92 µM at PPM1K; 91.1 ± 10.1 µM on STEP; 77.2 ± 7.95 µM against YPH; more than 50 µM on PRL; 54.6 ± 13 µM against SSH1.
